# Laboratory results taken from US20060069132A1, “Azolecarboxamide herbicides” (priority 2004, published 2006).
# What was measured:
# barnyardgrass [1] = assay: Test B pre-/postemergence herbicide test; type: in vivo, Echinochloa crus-galli; settings: for Barnyardgrass plant response rating: postemergence, visual rating
# Method in brief: (§1)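 Herbicidal effect was judged by eye on a 0–100 scale after plants stood 13 to 15 days in the greenhouse following pre- or postemergence treatment with surfactant-containing formulations.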
# rice = assay: Test B flooded paddy test; type: in vivo, Oryza sativa; settings: 1000 g ai/ha, visual rating, scale 0 to 100 (0 no effect, 100 complete control), 13 to 15 days
# Method in brief: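 Visual ratings, 0 (no effect) to 100 (complete control), made versus controls after 13–15 d greenhouse. Paddy plants treated at 2-leaf stage; postemergence plants at 1- to 4-leaf stage, 2–18 cm tall.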
# pigweed = assay: Test B pre-/postemergence herbicide test; type: in vivo, Amaranthus retroflexus; settings: for Pigweed plant response rating: postemergence, visual rating
# Method in brief: (§2)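 Seeds were planted and treated preemergence with compounds formulated in a non-phytotoxic solvent mixture containing surfactant, while plants at the 1- to 4-leaf stage (2 to 18 cm) received postemergence sprays. Flooded paddy plants were grown to the 2-leaf stage. After 13 to 15 days in a greenhouse, injury was visually rated 0–100 against untreated controls.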
# blackgrass = assay: Test B postemergence herbicide test; type: in vivo, Alopecurus myosuroides; settings: scale 0 (no effect) to 100 (complete control); for Plant response rating, Blackgrass: Postemergence, 500 g ai/ha, visual rating after 13 to 15 days; for Blackgrass plant response rating: postemergence, 125 g ai/ha, visual rating
# Method in brief: (§3)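 Treated at 2-leaf (paddy) or 1–4-leaf, 2–18 cm (postemergence); greenhouse 13–15 d; visual score vs control, 0 none to 100 complete control; dash = not tested.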
# Surinam grass = assay: Test B pre-/postemergence herbicide test; type: in vivo, Urochloa decumbens; settings: for Surinam Grass plant response rating: postemergence, visual rating
# Method in brief: as §2
# wheat = assay: Test B postemergence herbicide test; type: in vivo, Triticum aestivum; design: key to Wheat plant response rating: 0 = no effect, 100 = complete control; settings: scale 0 (no effect) to 100 (complete control); for Plant response rating, Wheat: Postemergence, 500 g ai/ha, visual rating after 13 to 15 days; for Wheat plant response rating: postemergence, 125 g ai/ha, visual rating
# Method in brief: (§4)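 Formulated test chemicals went onto postemergence plants measuring 2 to 18 cm, at one to four leaves. For the paddy assay, species had reached two leaves. Scoring took place 13–15 days later by eye, relative to untreated plants, using 0 for no effect up to 100 for full control.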
# cocklebur = assay: Test B pre-/postemergence herbicide test; type: in vivo, Xanthium strumarium; settings: for Cocklebur plant response rating: postemergence, visual rating
# Method in brief: as §1
# giant foxtail = assay: Test B pre-/postemergence herbicide test; type: in vivo, Setaria faberi; settings: for Foxtail, Giant plant response rating: postemergence, visual rating
# Method in brief: as §2
# velvetleaf = assay: Test B pre-/postemergence herbicide test; type: in vivo, Abutilon theophrasti; settings: for Velvetleaf plant response rating: postemergence, visual rating
# Method in brief: as §2
# barnyardgrass [2] = assay: Test B flooded paddy test; type: in vivo, Echinochloa crus-galli; settings: 1000 g ai/ha, visual rating, scale 0 to 100 (0 no effect, 100 complete control), 13 to 15 days
# Method in brief: as §3
# corn = assay: Test B pre-/postemergence herbicide test; type: in vivo, Zea mays; settings: for Corn plant response rating: postemergence, visual rating
# Method in brief: as §2
# large crabgrass = assay: Test B pre-/postemergence herbicide test; type: in vivo, Digitaria sanguinalis; settings: for Crabgrass, Large plant response rating: postemergence, visual rating
# Method in brief: as §2
# ducksalad = assay: Test B flooded paddy test; type: in vivo, Heteranthera limosa; settings: 1000 g ai/ha, visual rating, scale 0 to 100 (0 no effect, 100 complete control), 13 to 15 days
# Method in brief: as §3
# wild oat = assay: Test B postemergence herbicide test; type: in vivo, Avena fatua; settings: scale 0 (no effect) to 100 (complete control); for Plant response rating, Oat, Wild: Postemergence, 500 g ai/ha, visual rating after 13 to 15 days; for Oat, Wild plant response rating: postemergence, 125 g ai/ha, visual rating
# Method in brief: as §4
# [3] = tested on: small flower umbrella sedge; assay: Test B flooded paddy test; type: in vivo, Cyperus difformis; settings: 1000 g ai/ha, visual rating, scale 0 to 100 (0 no effect, 100 complete control), 13 to 15 days
# Method in brief: as §3
# [4] = 500 g ai/ha, visual rating 0-100, 0 no effect, 100 complete control, preemergence
# [5] = Postemergence, 500 g ai/ha, visual rating after 13 to 15 days, scale 0 (no effect) to 100 (complete control)
# [6] = 125 g ai/ha, scale 0 (no effect) to 100 (complete control)
# [7] = preemergence, 125 g ai/ha, 0 to 100 scale, 0 is no effect, 100 is complete control
compound,measurement,setting,value
CC(=NO)c1cccc(NC(=O)c2cc(C(C)(C)C)nn2C)c1 [Compound 102],"Plant response rating, Barnyardgrass",barnyardgrass [1]; [4],90
same,"Plant response rating, Barnyardgrass",barnyardgrass [1]; [5],40
same,Barnyardgrass plant response rating,barnyardgrass [1]; [6],0
same,"Plant response rating, Barnyardgrass",barnyardgrass [1]; [7],80
same,Rice plant response rating,rice,50
same,"Plant response rating, Pigweed",pigweed; [4],100
same,"Plant response rating, Pigweed",pigweed; [5],100
same,Pigweed plant response rating,pigweed; [6],80
same,"Plant response rating, Pigweed",pigweed; [7],90
same,"Plant response rating, Blackgrass",blackgrass,20
same,Blackgrass plant response rating,blackgrass,0
same,"Plant response rating, Surinam Grass",Surinam grass; [4],40
same,"Plant response rating, Surinam Grass",Surinam grass; [5],100
same,Surinam Grass plant response rating,Surinam grass; [6],70
same,"Plant response rating, Surinam Grass",Surinam grass; [7],20
same,"Plant response rating, Wheat",wheat,20
same,Wheat plant response rating,wheat,0
same,"Plant response rating, Cocklebur",cocklebur; [4],0
same,"Plant response rating, Cocklebur",cocklebur; [5],50
same,Cocklebur plant response rating,cocklebur; [6],30
same,"Plant response rating, Cocklebur",cocklebur; [7],0
same,"Plant response rating, Foxtail, Giant",giant foxtail; [4],80
same,"Plant response rating, Foxtail, Giant",giant foxtail; [5],30
same,"Foxtail, Giant plant response rating",giant foxtail; [6],10
same,"Plant response rating, Foxtail, Giant",giant foxtail; [7],30
same,"Plant response rating, Velvetleaf",velvetleaf; [4],70
same,"Plant response rating, Velvetleaf",velvetleaf; [5],20
same,Velvetleaf plant response rating,velvetleaf; [6],0
same,"Plant response rating, Velvetleaf",velvetleaf; [7],0
same,Barnyardgrass plant response rating,barnyardgrass [2],80
same,"Plant response rating, Corn",corn; [4],50
same,"Plant response rating, Corn",corn; [5],40
same,Corn plant response rating,corn; [6],20
same,"Plant response rating, Corn",corn; [7],0
same,"Plant response rating, Crabgrass, Large",large crabgrass; [4],100
same,"Plant response rating, Crabgrass, Large",large crabgrass; [5],70
same,"Crabgrass, Large plant response rating",large crabgrass; [6],10
same,"Plant response rating, Crabgrass, Large",large crabgrass; [7],100
same,Ducksalad plant response rating,ducksalad,90
same,"Plant response rating, Oat, Wild",wild oat,40
same,"Oat, Wild plant response rating",wild oat,20
same,"Sedge, Umbrella plant response rating",[3],100
CCn1nc(C(C)(C)C)cc1C(=O)Nc1cccc(C(C)=NO)c1 [Compound 108],"Plant response rating, Barnyardgrass",barnyardgrass [1]; [4],90
same,"Plant response rating, Barnyardgrass",barnyardgrass [1]; [5],70
same,Barnyardgrass plant response rating,barnyardgrass [1]; [6],10
same,"Plant response rating, Barnyardgrass",barnyardgrass [1]; [7],80
same,Rice plant response rating,rice,70
same,"Plant response rating, Pigweed",pigweed; [4],100
same,"Plant response rating, Pigweed",pigweed; [5],100
same,Pigweed plant response rating,pigweed; [6],80
same,"Plant response rating, Pigweed",pigweed; [7],90
same,"Plant response rating, Blackgrass",blackgrass,20
same,Blackgrass plant response rating,blackgrass,0
same,"Plant response rating, Surinam Grass",Surinam grass; [4],80
same,"Plant response rating, Surinam Grass",Surinam grass; [5],10
same,Surinam Grass plant response rating,Surinam grass; [6],10
same,"Plant response rating, Surinam Grass",Surinam grass; [7],50
same,"Plant response rating, Wheat",wheat,20
same,Wheat plant response rating,wheat,10
same,"Plant response rating, Cocklebur",cocklebur; [4],30
same,"Plant response rating, Cocklebur",cocklebur; [5],90
same,Cocklebur plant response rating,cocklebur; [6],70
same,"Plant response rating, Cocklebur",cocklebur; [7],10
same,"Plant response rating, Foxtail, Giant",giant foxtail; [4],100
same,"Plant response rating, Foxtail, Giant",giant foxtail; [5],30
same,"Foxtail, Giant plant response rating",giant foxtail; [6],10
same,"Plant response rating, Foxtail, Giant",giant foxtail; [7],90
same,"Plant response rating, Velvetleaf",velvetleaf; [4],100
same,"Plant response rating, Velvetleaf",velvetleaf; [5],70
same,Velvetleaf plant response rating,velvetleaf; [6],50
same,"Plant response rating, Velvetleaf",velvetleaf; [7],80
same,Barnyardgrass plant response rating,barnyardgrass [2],80
same,"Plant response rating, Corn",corn; [4],30
same,"Plant response rating, Corn",corn; [5],20
same,Corn plant response rating,corn; [6],10
same,"Plant response rating, Corn",corn; [7],10
same,"Plant response rating, Crabgrass, Large",large crabgrass; [4],100
same,"Plant response rating, Crabgrass, Large",large crabgrass; [5],70
same,"Crabgrass, Large plant response rating",large crabgrass; [6],20
same,"Plant response rating, Crabgrass, Large",large crabgrass; [7],100
same,Ducksalad plant response rating,ducksalad,90
same,"Plant response rating, Oat, Wild",wild oat,50
same,"Oat, Wild plant response rating",wild oat,20
same,"Sedge, Umbrella plant response rating",[3],90
